Reference: US5827073A, “Photoreactive peptide derivatives” (Ludwig Institute for Cancer Research, priority 1995, dated 1998)
Entries after “also recorded” stand apart in the source; their conditions may differ. Where no end group is shown, it is not given here. [ ]: non-standard residue; d: D form. IASA = not defined here; Dap = NC[C@H](N)C(=O)O

How the values were obtained:
Format in all cases: binding, human
[1] = test system: HLA class I molecules; test: Photoaffinity labelling of a panel of cell lines expressing different HLA class I molecules; conditions: for photoaffinity labelling of 45 kDa HLA heavy chain on LG2-EBV cells: lane 11
Protocol: (§1) All photoaffinity labelling procedures were performed essentially as described by Luescher et al., J. Immunol., 148:1003-011 (1992); Luescher et al., Nature, 351:72-74 (1991); Romero et al., J. Exp. Med., 177:1247-1256 (1993); Luescher et al., J. Biol. Chem., 269:5574-5592 (1994); and Romero et al., J. Immunol. Methods, 171:73-84 (1994). Briefly, HLA-A1 transfected C1R cells, cultured in hygromycin containing medium, or other cell types were resuspended in DMEM medium supplemented with 0.5% fetal calf serum, 10 mM HEPES and 0.25 μg/ml human β2-microglobulin, or as specified, at 6 ×10^6 cells/ml. One ml aliquotes were incubated in 6-well plates with 20 ×10^6 cpm of peptide derivative at 26° C. for 4 hours or as specified.
(§2) After UV irradiation with a 15 W mercury fluorescence lamp with an emission maximum at 365 nm and a band width of 80 nm for 4 minutes at a lamp-sample distance of 2 cm, the cells were washed 4 times with DMEM containing 2% calf serum and 1 time with PBS. The washed cells were lysed and boiled in reducing sample buffer supplemented with MgCl2 and subjected to SDS-PAGE. Alternatively the UV irradiated samples were lysed with NP-40 detergent (0.7%) on ice in the presence of HEPES (50 mM), leupeptin (10 μg/ml), PMSF (0.1 mM), and iodoacetamide (10 MM). Immunoprecipitation of HLA molecules with immobilized W6/32 mAb (Brodsky et al., J. Immunol., 128:129-135 (1982) and SDS-PAGE analysis of the immunoprecipitate were performed as described by Luescher et al., Electrophoresis, 8:508 (1987). The gels were evaluated by autoradiography and in some experiments by densitometry as described by Luescher et al., J. Immunol., 148:1003-1011 (1992). Each labelling experiment was performed at least twice.
The first 9 were HLA homozygous EBV transformed cells lines that have been described at the 10th International Histocompatibility Workshop (DuPont, Immunobiology of HLA, New York, Springer-Verlag, Vol. 1 (1987)). Workshop numbers are indicated as "ws#", and their HLA-C expression has been determined by PCR (Levine et al., Tissue Antigens, 44:174 (1994)). The heterozygous EBV transformed cell lines were derived from HLA-typed individuals. In the case of HLA-C, the serological typing was incomplete, as indicated by question marks. The remaining cell line was COS-7 cell transfected with HLA-Cw*1601. These cells were subjected to the same labelling procedure as described for FIG. 4B.

[2] = test system: HLA class I molecules; test: as above; conditions: COS-7 transfectant
[3] = test system: HLA-A1; test: HLA-A1 photoaffinity labelling of HLA-A1 transfected C1R cells with radioiodinated peptide derivative; conditions: β2-microglobulin, 26° C., UV irradiation, SDS-PAGE
Protocol: as §1, §2
To perform competition assays, ^51 Cr labelled C1R HLA-A1 transfected cells were incubated in the presence of a suboptimal concentration of the MAGE-3 peptide 168-176 with cloned HLA-A1-restricted MAGE-3-specific CTL 20/38. […] Alternatively, the radioiodinated peptide derivatives were incubated with HLA-A1 transfected C1R cells and following UV irradiation, the lysates of the washed cells were analyzed by SDS-PAGE (10%, reducing conditions).
Following incubation of these cells with the radioiodinated peptide derivatives and UV irradiation, cell lysates were analyzed by SDS-PAGE (FIG. 4B).

[4] = test system: HLA-A1; test: Dissociation of HLA-A1 peptide derivative complexes on C1R/A1 cells; conditions: physiological conditions (37° C., no exogenous β2-microglobulin), after 6 hours
Protocol: FIG. 3 is comprised of FIG. 3A, FIG. 3B and FIG. 3C. FIG. 3A represents SDS-PAGE analysis of EADPTGDap(IASA)SY incubated with C1R/A1 cells or WT51 cells in the presence of β2-microglobulin. FIG. 3B represents SDS-PAGE where incubation was performed at 37° C. or 26° C. in the absence of presence of β2-microglobulin, and the autoradiograms were evaluated by densitometry.
This considerable increase is mainly accounted for by an accordingly less efficient peptide binding under physiological conditions (i.e., 37° C. and no exogenous β2-microglobulin) . Another difference between the human and murine system is the difference in the stability of MHC class 1-peptide complexes. On C1R/A1 cells, the dissociation of HLA-A1 peptide derivative complexes under physiological conditions was remarkably slow, and even after 6 hours of incubation less than 20% dissociation took place (FIG. 3C). Similarly slow dissociations have been reported for other HLA class I molecules (DiBrino et al., J. Immunol., 152:620-631 (1994); Tsomides et al., Proc. Natl. Acad. Sci. USA, 88:11276 (1991)). In contrast, in the murine system, i.e., the Kd, Db of Ld system, under these conditions rapid dissociations with halftimes in the range of one hour have been reported (Luescher et al., Nature, 351:72-74 (1991); Luescher et al., J. Biol. Chem., 269:5574-5582 (1994); Romero et al., 1994, supra).

[5] = test system: HLA-A29; test: Inhibition of HLA-A29 photoaffinity labelling on 807-02 cells by competitor peptides; conditions: for inhibition of HLA-A29 photoaffinity labelling (HLA-A29 competitor activity / binding): 20-fold molar excess of competitor, FIG. 6B
Protocol: as §1, §2
After UV irradiation, the cells were lysed and the immunoprecipitated HLA molecules were analyzed by SDS-PAGE and the resulting autoradiograms were evaluated by densitometry. All experiments were performed at least in triplicate. Hundred percent labelling refers to the labelling observed in the absence of a competitor peptide (FIG. 6A).

[6] = test system: HLA-A1; test: Inhibition of HLA-A1 photoaffinity labelling on C1R/A1 cells by competitor peptides; conditions: for binding of MAGE-3 peptide variants to HLA-A1: single alanine substitutions, method not stated
[7] = labelling with Dap(IASA)-ADPTGHSY on C1R HLA-A1 transfectants, 100-fold molar excess of competitor, densitometry

Substance: Dap(IASA)-ADPTGHSY ([Dap](IASA)ADPTGHSY; reading uncertain)
- HLA labelling on 806-04 cells ([1]; 806-04 (HLA-A29+)): similarly efficient HLA labelling
- photoaffinity labelling of 45 kDa HLA heavy chain on 807-02 cells ([1]; 807-02 (HLA-A29+), lane 15): significant photoaffinity labelling; also recorded: similarly efficient HLA labelling
- photoaffinity labelling of 45 kDa HLA heavy chain on BM21 cells ([1]; EBV transformed line BM21 (HLA-A1), lane 1): significant photoaffinity labelling
- photoaffinity labelling of 45 kDa HLA heavy chain on MOU cells ([1]; EBV transformed line MOU (HLA-A*2902, HLA-B*4403), lane 4): significant photoaffinity labelling
- photoaffinity labelling of 45 kDa HLA heavy chain on LG2-EBV cells [1]: significant photoaffinity labelling
- photoaffinity labelling of 45 kDa HLA heavy chain on LG2-EBV cells ([1]; listed as SEQ ID NO: 8): weak labelling
- photoaffinity labelling of 45 kDa material on the other lines tested ([1]; lanes 2, 3, 5-10, 12-14): not detectable
- HLA labelling on COS-7 cells transfected with HLA-A1 [2]: displayed HLA labelling
- HLA labelling on COS-7 cells transfected with HLA-A29 [2]: displayed HLA labelling
- HLA-A1 photoaffinity labelling (45 kDa HLA-A1 heavy chain) [3]: efficiently bound to and photoaffinity labelled HLA-A1
- HLA-A1 photoaffinity labelling (45 kDa HLA-A1 heavy chain) ([3]; listed as derivative containing Dap(IASA) in position 1): efficiently labelled

Substance: Glu Ala Asp Pro Thr Gly Dap(IASA) Ser Tyr (EADPTG[Dap](IASA)SY; reading uncertain; also: radioiodinated, printed as Glu Ala Asp Pro Thr Gly Dap(IASA) Ser Tyr) [SEQ ID NO: 1]
- HLA labelling on eight other EBV cell lines ([1]; eight other EBV cell lines expressing different HLA-A, B and C molecules): Equally negative
- HLA labelling on TEM cells ([1]; homozygous EBV transformed line TEM, HLA-A26, B-38): No detectable HLA labelling
- HLA labelling on WT51 cells ([1]; homozygous EBV transformed line WT51, HLA-A23, B65): No detectable HLA labelling
- dissociation of HLA-A1 peptide derivative complexes [4]: less than 20%
- HLA-A1 photoaffinity labelling (45 kDa HLA-A1 heavy chain) [3]: corresponds to the HLA-A1 heavy chain
- HLA-A1 photoaffinity labelling (45 kDa HLA-A1 heavy chain) ([3]; listed as derivative containing Dap(IASA) in position 7): efficiently labelled

Substance: MAGE-3 variant Tyr-176 replaced with phenylalanine: MAGE-3 peptide 168-176 with C-terminal tyrosine replaced by phenylalanine (EVDPIGHLF; UniProt P43357 168-176, looked up, variant Y176F)
- inhibition of HLA-A29 photoaffinity labelling (HLA-A29 competitor activity / binding) [5]: largely preserved the HLA-A29 competitor activity; also recorded: considerably diminishes binding

Substance: MAGE-3 variant alanine substitution of Asp-170: MAGE-3 peptide 168-176 with Asp-170 replaced by alanine (EVAPIGHLY; UniProt P43357 168-176, looked up, variant D170A)
- binding of MAGE-3 peptide variants to HLA-A1 [6]: substantially impaired its binding

Substance: MAGE-3 variant alanine substitution of Ile-172: MAGE-3 peptide 168-176 with Ile-172 replaced by alanine (EVDPAGHLY; UniProt P43357 168-176, looked up, variant I172A)
- inhibition of HLA-A29 photoaffinity labelling (HLA-A29 competitor activity / binding) [5]: markedly reduced the binding

Substance: MAGE-3 variant alanine substitution of Val-169: MAGE-3 peptide 168-176 with Val-169 (position 2) replaced by alanine (EADPIGHLY; UniProt P43357 168-176, looked up, variant V169A)
- inhibition of HLA-A29 photoaffinity labelling (HLA-A29 competitor activity / binding) [5]: to a lesser degree
- inhibition of HLA-A29 photoaffinity labelling (HLA-A29 competitor activity / binding) ([5]; listed as MAGE-3 variant substitution in position 2 with alanine): impaired

Substance: MAGE-3 variant containing Ala in position 9: MAGE-3 peptide 168-176 with Tyr-176 replaced by alanine (EVDPIGHLA; UniProt P43357 168-176, looked up, variant Y176A)
- inhibition of HLA-A29 photoaffinity labelling (HLA-A29 competitor activity / binding) [5]: 13%
- binding of MAGE-3 peptide variants to HLA-A1 [6]: substantially impaired its binding

Substance: MAGE-3 variant substitution in position 2 with isoleucine: MAGE-3 peptide 168-176 with position 2 replaced by isoleucine (EIDPIGHLY; UniProt P43357 168-176, looked up, variant V169I)
- inhibition of HLA-A29 photoaffinity labelling (HLA-A29 competitor activity / binding) [5]: increased

Substance: MAGE-3 variant substitution in position 2 with phenylalanine: MAGE-3 peptide 168-176 with position 2 replaced by phenylalanine (EFDPIGHLY; UniProt P43357 168-176, looked up, variant V169F)
- inhibition of HLA-A29 photoaffinity labelling (HLA-A29 competitor activity / binding) [5]: increased

Substance: MAGE-3: HLA-A1 restricted MAGE-3 peptide 168-176
- inhibition of HLA-A29 photoaffinity labelling (HLA-A29 competitor activity / binding) [5]: approximately 80%
- inhibition of HLA-A1 photoaffinity labelling [6, 7]: about 98%
- inhibition of HLA-A1 photoaffinity labelling ([6]; labelling with SEQ ID NO: 1 on C1R/A1 cells, 300 fold molar excess of competitor): completely inhibited

Substance: tyrosinase peptide 368-376: HLA-A2-restricted tyrosinase peptide 368-376 (IYMNGTMSQ; UniProt P14679 368-376, looked up, fragment) [reference compound]
- inhibition of HLA-A29 photoaffinity labelling ([5]; labelling with Dap(IASA)-ADPTGHSY on 807-02 cells, 100-fold molar excess of competitor, densitometry): no detectable inhibition
- inhibition of HLA-A1 photoaffinity labelling [6, 7]: No significant inhibition
